Data on twelve compounds can be found in patent publication US20210395313A1, “PEPTIDE PAC1 ANTAGONISTS” (AMGEN INC., priority 2017, published 2021).

The IC50 is the concentration needed to halve the response being measured. A higher IC50 goes with lower potency.

Bridges are numbered along the chain shown (N, C = ends). Where no end group is shown, it is not given here.

For data set [1], the target named is T1, human PAC1 receptor (Homo sapiens, UniProt P41586).
T1 construct: SHSY-5Y (human neuroblastoma cell line) and RG-2 (rat glioma cell line) cells endogenously express human and rat PAC1 receptors, respectively; endogenous in cells; host or cells: SHSY-5Y human neuroblastoma cells
T1 sequence (P41586 21-468): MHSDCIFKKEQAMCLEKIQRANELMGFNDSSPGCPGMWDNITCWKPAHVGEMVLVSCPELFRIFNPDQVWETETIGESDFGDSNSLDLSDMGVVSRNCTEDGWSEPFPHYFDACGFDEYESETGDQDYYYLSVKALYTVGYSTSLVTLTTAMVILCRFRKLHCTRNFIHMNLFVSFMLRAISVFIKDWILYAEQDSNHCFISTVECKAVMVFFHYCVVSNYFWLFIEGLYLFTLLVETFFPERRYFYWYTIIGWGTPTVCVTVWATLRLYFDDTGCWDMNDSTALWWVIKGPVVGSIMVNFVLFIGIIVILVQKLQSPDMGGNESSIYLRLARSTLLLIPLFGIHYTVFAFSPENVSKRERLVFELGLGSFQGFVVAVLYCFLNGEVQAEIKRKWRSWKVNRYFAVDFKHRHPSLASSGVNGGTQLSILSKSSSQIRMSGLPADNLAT
The data set is described as follows: LANCE Ultra cAMP accumulation antagonist assay in SHSY-5Y cells.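 Further: inhibition of cAMP accumulation evoked by PAC1 agonist at its EC80 in SHSY-5Y cells endogenously expressing receptor, 30 min preincubation then 15 min agonist, TR-FRET readout.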 It is filed as cell-based. Background: TR-FRET usually uses a lanthanide donor and a delayed reading to cut background.

For data set [2], the target named is T2, rat PAC1 receptor (Rattus norvegicus, UniProt P32215).
T2 construct: SHSY-5Y (human neuroblastoma cell line) and RG-2 (rat glioma cell line) cells endogenously express human and rat PAC1 receptors, respectively; endogenous in cells; host or cells: RG-2 rat glioma cells
T2 sequence (P32215 20-523): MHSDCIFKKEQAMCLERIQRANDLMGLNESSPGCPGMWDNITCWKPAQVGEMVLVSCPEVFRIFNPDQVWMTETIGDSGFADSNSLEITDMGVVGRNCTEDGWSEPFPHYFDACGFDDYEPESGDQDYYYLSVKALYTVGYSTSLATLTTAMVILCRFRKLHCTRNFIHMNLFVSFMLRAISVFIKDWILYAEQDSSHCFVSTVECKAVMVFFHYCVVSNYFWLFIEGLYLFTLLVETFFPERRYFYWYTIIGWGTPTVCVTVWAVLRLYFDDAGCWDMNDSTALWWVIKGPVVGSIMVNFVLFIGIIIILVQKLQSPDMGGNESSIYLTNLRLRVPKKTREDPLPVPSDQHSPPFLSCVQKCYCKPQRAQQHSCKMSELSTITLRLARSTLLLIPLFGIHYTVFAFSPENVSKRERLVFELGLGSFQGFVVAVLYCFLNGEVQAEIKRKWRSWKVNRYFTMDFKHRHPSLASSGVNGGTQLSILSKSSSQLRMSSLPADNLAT
The experiment in a line: LANCE Ultra cAMP accumulation antagonist assay in RG-2 cells.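 Further: RG-2 rat glioma cells endogenously expressing PAC1, test peptide preincubated 30 min, then PAC1 agonist added at its EC80 for 15 min, cAMP accumulation read by LANCE Ultra.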 Type of data set: cell-based.

Data set [3] deals with T3, PAC1 (Rattus norvegicus, UniProt P32215).
T3 construct: Naive male Sprague Dawley® rats aged 8-12 weeks at the time of the study were purchased from Charles River Laboratories; tissue Charles River Laboratories; host or cells: live male Sprague Dawley rats; dermal blood flow on abdominal skin
T3 sequence (P32215 20-523): T2 sequence (P32215 20-523)
The data set is described as follows: Rat maxadilan-induced increase in blood flow (MIIBF) PD model, laser Doppler imaging. Conditions: for inhibition of MIIBF (dermal blood flow): single bolus i.v., lowest dose of 0.1 mg/kg, 5 min prior to maxadilan, 35 min post peptide treatment; for inhibition of maxadilan-induced increase in DBF: single bolus s.c., lowest dose of 0.3 mg/kg, 15 min prior to maxadilan, 45 min post peptide treatment. Type of data set: in vivo. The procedure: PAC1 peptide antagonists were also evaluated in an in vivo pharmacodynamic model—a model of maxadilan-induced increase in blood flow.
Naive male Sprague Dawley® rats aged 8-12 weeks at the time of the study were purchased from Charles River Laboratories. Animals were group-housed in non-sterile, ventilated micro-isolator housing in Amgen Assessment and Accreditation of Laboratory Animal Committee (AAALAC)-accredited facility. Animals had ad libitum access to pelleted feed (Harlan Teklad 2020X, Indianapolis, IN) and water (on-site generated reverse osmosis) via automatic watering system.
All PAC1 peptides were tested in a rat maxadilan-induced increase in blood flow (MIIBF) pharmacodynamic (PD) model with a laser Doppler imaging. A dosing solution of maxadilan (Bachem, H6734.0500) was prepared fresh daily by diluted maxadilan stock solution (0.5 mg/mL) in 1× PBS to the final concentration of 0.5 μg/mL. All tested peptides were prepared in 1× PBS at different concentrations depend on the dose required for the experiment and given in a single bolus i.v. or s.c. injection. A laser Doppler imager (LDI-2, Moor Instruments, Ltd, Wilmington, Del.) was used to measure dermal blood flow (DBF) on the shaved skin of the rat abdomen with a low-power laser beam generated by a 633 nm helium-neon bulb. The measurement resolution was 0.2 to 2 mm, with scanning distances between the instrument aperture and the tissue surface of 30 cm. In this report, DBF was measured and expressed as % change from baseline [100×(individual post-CAP flux-individual baseline flux)/individual baseline flux] and further calculated to % Inhibition to quantify the magnitude of drug effect [Mean of vehicle % change from BL−individual drug treated rat % change from BL)/Mean of vehicle % change from BL].
On the test day, following anesthetization with propofol, the rat's abdominal area was shaved and each animal was placed in a supine position on a temperature-controlled circulating warm-water pad to maintain a stable body temperature during the study. After a 10 to 15 minute stabilization period, a rubber O-ring (0.925 cm inner diameter, O-Rings West, Seattle, Wash.) was placed on the rat abdomen without directly positioning it over a visible blood vessel while the rat placed in a supine position on a temperature-controlled circulating warm-water pad to maintain a stable body temperature during the study. After placement of an O-ring on the selected area, a baseline (BL) DBF measurement was taken. After the BL scan, PAC1 peptides were administrated either 5 min for i.v., or 15 min for s.c. then followed by 20 μL (in 0.5 μg/mL) intradermal injection of maxadilan at the center of the O-ring. The post-maxadilan DBF was measured at 30 min and the post peptides time was 35 min for i.v. and 45 min for s.c. respectively. The O-ring serves as an area of interest in which the DBF will be analyzed within the O-ring.
All DBF results were expressed as the mean±SEM. A one-way ANOVA followed by Dunnett's Multiple Comparison Test (MCT) was used to assess the statistical significance of PAC1 peptides effects relative to the vehicle within the study. A p<0.05 was used to determine significance between any two groups.

The conditions of data set [4]: rat plasma, 37° C., 0 h (baseline).
Description: (§1) To model degradation in blood, PAC1 peptides of the present application were incubated in vitro with rat plasma. The stability analysis was conducted in a manner similar to as previously described by Souverain et al. (J. of Pharmaceutical and Biomedical Analysis, 35 (2004) 913-920).
(§2) Briefly, PAC1 peptides were spiked into rat plasma and incubated at 37° C. for up to 6 hours. Employing the reverse stability technique for various time points, plasma samples were quenched by the addition of perchloric acid in water containing internal standard (IS) and vortexed undergoing protein precipitation extraction (PPE). Following the vortex mix, samples were centrifuged and the supernatant containing PAC1 peptide and IS was subsequently analyzed using a liquid chromatography mass-spectrometry (LC-MS) system (Sciex® API 5500). The peak area ratio of intact PAC1 peptide to IS was determined for each time point. Peptide stability was reported as a percentage of the peak area ratio at each time point relative to the peak are ratio of a baseline sample (pre-incubation).
The nature of data set [5]: in vitro. Conditions: rat, plasma.
Description: as §1, §2
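Wherever % Intact Peptide Remaining is given: peptides incubated in vitro in rat plasma at 37 °C up to 6 h, intact peptide quantified by LC-MS versus internal standard, expressed relative to pre-incubation baseline (100%).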

Turning to `CC[C@H](C)[C@H](NC(=O)[C@H](C)NC(=O)[C@H](CCCCN)NC(=O)[C@H](CCCNC(=N)N)NC(=O)[C@H](Cc1ccccc1)NC(=O)[C@H](CCC(N)=O)NC(=O)[C@@H]1CSSC[C@H](N)C(=O)N[C@@H](CC(=O)O)C(=O)N[C@@H](C)C(=O)N[C@@H]([C@@H](C)O)C(=O)N1)C(=O)N[C@@H](CC(=O)O)C(=O)N[C@@H](CC(=O)O)C(=O)N[C@H]1CSSC[C@@H](C(=O)N[C@@H](CCSC)C(=O)N[C@@H](CCCCN)C(=O)N[C@@H](CCC(N)=O)C(=O)N[C@@H](CCCCN)C(=O)N[C@@H](CCCCN)C(=O)N[C@@H](CCCCN)C(=O)N[C@@H](CCC(=O)O)C(=O)N[C@@H](Cc2ccccc2)C(=O)N[C@@H](CCCCN)C(=O)N[C@@H](C)C(N)=O)NC(=O)C(C)(C)NC(=O)[C@H](CCCCN)NC(=O)[C@H](Cc2ccccc2)NC(=O)[C@H](C(C)C)NC(=O)[C@H](CO)NC(=O)CNC(=O)[C@@H]2CCCN2C(=O)[C@H](C(C)C)NC(=O)[C@H](CC(N)=O)NC(=O)[C@H](CO)NC(=O)[C@H](Cc2c[nH]cn2)NC(=O)[C@H](Cc2c[nH]cn2)NC(=O)[C@H](C)NC(=O)[C@H](CCC(N)=O)NC(=O)[C@H](CCCCN)NC(=O)[C@H](CCC(N)=O)NC1=O` [SEQ ID NO 250], the IC50 in data set [1] fell in the range of 1 to 100 nM; in data set [2], 0.01 to 1 nM. The “inhibition of MIIBF (dermal blood flow)” value in data set [3] was “statistically significant inhibition”.

The compound “CDATCQFRKAIDDCAKQAHHSNVPGSVFKACMKQKKKEFKAG-NH2 (disulfide 1-5, 14-31) [SEQ ID NO 180]” showed a half-inhibitory concentration (IC50) in data set [1] of 0.01 to 1 nM. For the same compound, in data set [2], the IC50 fell in the range of 0.01 to 1 nM. Moreover, in data set [3], the “inhibition of MIIBF (dermal blood flow)” value was “statistically significant inhibition” and the “inhibition of maxadilan-induced increase in DBF” value is “statistically significant inhibition”.

Turning to “CDATCQFRKAIDDCARQAHHSNVPGSVFKACMKQKKKEWKAGH (disulfide 1-5, 14-31) [SEQ ID NO 151]”, in data set [1], the IC50 is 0.01 to 1 nM. The IC50 in data set [2] was in the range of 0.01 to 1 nM. In addition, the “% Intact Peptide Remaining” value in data set [4] worked out at 100%. In addition, in data set [5], the fraction remaining at 0.5 h stood at 120%, the amount remaining at 1 h turned out to be 87%, the share remaining at 2 h amounted to 104% and the amount remaining at 4 h came to 112%. The amount remaining at 6 h in data set [5] amounted to 107%.

As to “CDATCQFRKAIDDCDRQAHHSNVPGSVFKACMKQKKKEWKAG-NH2 (disulfide 1-5, 14-31) [SEQ ID NO 163]”, the IC50 in data set [1] and in data set [2] was 0.01 to 1 nM each time. Besides, the “inhibition of maxadilan-induced increase in DBF” value in data set [3] is “statistically significant inhibition”.

On to “CDATCQFRKAIDDCHLLAWHANVPGSVFKACMKQKKKEFKAG-NH2 (disulfide 1-5, 14-31) [SEQ ID NO 140]”, for which, in data set [4], the “% Intact Peptide Remaining” value was determined as 100%. In data set [5], the amount remaining at 0.5 h came out at 101%, the fraction remaining at 1 h was determined as 91.4%, the amount remaining at 2 h was 93.4% and the share remaining at 4 h was determined as 107%. The amount remaining at 6 h in data set [5] stood at 108%.

For the compound “CDATCQFRKAIDDCLLRAWHSNVPGSVFKACMKQKKKEFKAG-NH2 (disulfide 1-5, 14-31) [SEQ ID NO 85]”, the IC50 in data set [1] and in data set [2] was 0.01 to 1 nM in each case. Also, in data set [3], the “inhibition of maxadilan-induced increase in DBF” value is given as “statistically significant inhibition”.

“CDATCQFRKAIDDCQKQAHHSNVPGSVFKACMKQKKKEFKAGY (disulfide 1-5, 14-31) [SEQ ID NO 164]”: in data set [4], the “% Intact Peptide Remaining” value is on record as 100%. Also, in data set [5], the amount remaining at 0.5 h was 94.3%, the amount remaining at 1 h turned out to be 113%, the share remaining at 2 h is 108% and the fraction remaining at 4 h was found to be 106%. The fraction remaining at 6 h in data set [5] amounted to 96.5%.

Consider “CDATCQFRKAIDDCVKQAHHSNVPGSVFKACMKQKKKEFKAG-NH2 (disulfide 1-5, 14-31) [SEQ ID NO 179]”, for which the IC50 in data set [1] and in data set [2] was 0.01 to 1 nM throughout. In data set [3], the “inhibition of MIIBF (dermal blood flow)” value is recorded as “statistically significant inhibition”.

Take “CDATCQFRKAIDDCYYYAMHSNVPGSVWKACMKQKKKEFKAG-NH2 (disulfide 1-5, 14-31) [SEQ ID NO 150]”: in data set [4], the “% Intact Peptide Remaining” value was 100%. Moreover, in data set [5], the amount remaining at 0.5 h came out at 117%, the amount remaining at 1 h was found to be 89.7%, the share remaining at 2 h was 92.1% and the share remaining at 4 h came to 90.2%. The fraction remaining at 6 h in data set [5] was found to be 92.8%.

As to “GCDATCQFRKAIDDCQKQAHHSNVPGSVFKACMKQKKKEFKAG-NH2 (disulfide 2-6, 15-32) [SEQ ID NO 181]”, the IC50 in data set [1] is 1 to 100 nM; in data set [2], 0.01 to 1 nM. Further, the “inhibition of MIIBF (dermal blood flow)” value in data set [3] is reported as “statistically significant inhibition”.

With “GCDATCQFRKAIDDCVRQAHHSNVPGSVFKACMKQKKKEWKAGH (disulfide 2-6, 15-32) [SEQ ID NO 88]”, the IC50 in data set [1] lay in the range of 0.01 to 1 nM. In addition, the IC50 in data set [2] was 0.01 to 1 nM. Moreover, the “% Intact Peptide Remaining” value in data set [4] is 100%. In data set [5], the share remaining at 0.5 h stood at 81.4%, the share remaining at 1 h is 90.8%, the share remaining at 2 h amounted to 84% and the fraction remaining at 4 h was 110%. In addition, the amount remaining at 6 h in data set [5] was 100%.

Consider “SCDATCQFRKAIDDCQKQAHHSNVPGSVFKACMKQKKKEFKAG-NH2 (disulfide 2-6, 15-32) [SEQ ID NO 183]”, for which the IC50 in data set [1] lay within 1 to 100 nM; in data set [2] it was 0.01 to 1 nM. Moreover, the “inhibition of MIIBF (dermal blood flow)” value in data set [3] was “statistically significant inhibition”.
